According to patent publication US8748130B2, “Human papillomavirus / Ii-Key hybrids and methods of use” (priority 2008, dated 2014):

Test system: HPV11-specific CTL activity
Assay: In vivo CTL assay (CFSE-labelled target cells) after co-immunization with CTL epitope HPV11
Design: species or system HLA-DR4-tg mice
Settings: 3 weeks
Experimental: HLA-DR4-tg mice were immunized with no peptide (A); 60 nmole of HPV11 (HPV16 E7 (49-57) an H-2D^b-restricted CTL epitope) (B); 60 nmole of HPV11 plus 15 nmole HPV4 hybrid (C); 60 nmole of HPV11 plus 30 nmole HPV4 hybrid (D); or 60 nmole of HPV11 plus 60 nmole HPV4 hybrid (E). Peptides were mixed with 20 μg of CpG and then emulsified in an equal volume of IFA in a total volume of 150 μl/mouse. Three weeks after immunization, HPV11-specific CTL activity was measured in an in vivo assay whereby the cells were incubated with either the immunizing peptide (HPV11) and a high concentration of CFSE or no peptide and a low concentration of CFSE. Equal numbers of the two cell populations were mixed and injected by tail vein into mice. The top figure indicates the percentage of HPV11-specific CTL killing as determined by the ratio of CFSE^low to CFSE^high cells using the formula 1—CFSE^low/CFSE^high following flowcytometry. The histograms for each group are shown below. The data shown are from pooled splenocytes (2 mice per group).
HLA-DR4-tg mice were immunized with no peptide (A); 60 nmole of HPV11 (HPV16 E7 (49-57), an H-2D^b-restricted CTL epitope) (B); 30 nmole HPV1 plus 60 nmole HPV11 (C); or 30 nmole HPV4 plus 60 nmole HPV11. The peptides were administered as indicated for FIG. 3. Three weeks after immunization, HPV11-specific CTL activity was measured in an in vivo assay (see FIG. 3). […]

rahynivtf (RAHYNIVTF; Human papillomavirus type 16) [HPV11]
HPV11-specific CTL killing (%) (Table 5: 60 nmole HPV11 alone, CpG + IFA, pooled splenocytes (2 mice per group)): 19% | HPV11-specific CTL activity (%) (Table 6: 60 nmole HPV11 alone or with 30 nmole HPV1 or HPV4, CpG + IFA, pooled splenic cells): 14%
